Results: patent US20230313181A1, “HISTIDINE-LYSINE POLYMERS AND METHODS FOR DELIVERING MRNA USING THE SAME” (UNIVERSITY OF MARYLAND, BALTIMORE, priority 2019, published 2023)
Bridges are numbered along the chain shown (N, C = ends). Roman numbers before positions name the chains, in order. Where no end group is shown, it is not given here.

What was measured:
MDA-MB-231 cells = assay: mRNA transfection with HK associated lipid particles (HK polymer + DOTAP liposomes); type: cell-based; details: luciferase mRNA
Protocol: FIGS. 8A and 8B. Comparison of mRNA transfection with DOTAP and several HK polymers. To form HK associated lipid particles, the mRNA (1 μg) was initially mixed with the HK polymer (4 μg) for 30 min and then with the DOTAP liposomes (1 μg) for 30 min. HK polyplexes were prepared as described previously. These complexes were then added to the cells for 24 h before the luciferase activity was measured *, P<0.05; **, P<0.01; ***, P<0.001; […].
Transfection with HK associated lipid particles was done similarly as above with few exceptions. In brief, the HK polymer was mixed initially with mRNA at various ratios for 30 min in Opti-MEM. This was followed by adding the DOTAP cationic liposome (1,2-dioleoyl-3-trimethylam-monium-propane; […]; Roche, Basel, CH) for 30 additional min. The Opti-MEM mixture (50 μl) was then added dropwise to the cells.

mRNA [1] = assay: Gel retardation assay of HK polymer/mRNA polyplexes; type: physicochemical; details: 1:2 and 1:1 ratios (wt:wt; peptide:mRNA)
Protocol: FIG. 3. Gel retardation assay. After H3K(+H)4b or H3K4b carriers were mixed with mRNA at the various ratios shown in the figure (wt:wt; peptide:mRNA, mRNA was 1 μg in each) for 30 min, the HK polyplexes were loaded onto the gel (1% agarose). Electrophoresis was carried out at a constant voltage of 75 V for 30 min in TAE buffer and then stained with Sybr Gold as detailed herein. In first lane, RNA standard (New England Biolabls, B0363A) was loaded whereas in the second lane, the control, luciferase mRNA without a carrier was loaded into the well. In subsequent lanes, various ratios of mRNA:HK were loaded into wells.
Gel Retardation Assay. Various amounts of HK polymers were mixed with […] of mRNA and incubated for 30 min at room temperature. Specifically, the following HK polymer/mRNA ratios (w/w) were prepared in water: 1/2; 1/1; 2/1, 4/1, 8/1. After 30 min, the HK polyplex was loaded onto the gel (1% agarose, Sigma-Aldrich; 10× BlueJuice Gel loading buffer, ThermoFisher Scientific), electrophoresis was then carried out at a constant voltage of 75 V for 30 min in TAE buffer (Quality Biologicals, Gaithersburg, MD). The mRNA was stained with Sybr Gold Nucleic Acid dye (SG, 1×) (ThermoFisher Scientific) for 30 min before exposure to the UV imager (ChemiDoc Touch, BIO-RAD, Hercules, CA).

mRNA [2] = assay: Heparin displacement assays (gel electrophoresis and Sybr Gold dye intercalation); type: physicochemical; details: HK:mRNA 4:1 wt/wt
Protocol: FIG. 4. Heparin Displacement Assays. After HK polyplexes were formed (wt:wt; HK:mRNA; 4 μg:1 μg), different concentrations of heparin […] were incubated with these for 30 min. A. Gel Retardation. The HK polyplexes were loaded on the agarose gel (1%), and electrophoresis was carried out and stained with Sybr Gold. B. Fluorescent dye intercalation. After the HK polyplexes were formed and incubated with several concentrations of heparin, the Sybr Gold nucleic acid dye was incubated with the HK polyplexes for 5 mins. Fluorescence was then measured by a microplate fluorimeter (λex=497 nm, λem=520 nm) (SynergyMx, BioTek). *, P<0.05; ***, P<0.001; H3K4b or H2K vs. H3K(+H)4b.
Heparin Displacement Assays. Heparin displacement assays of HK polyplexes were done with the dye intercalation assay and with gel electrophoresis. A fluorescent assay assessed polyplexes of HK polymer and mRNA (4:1 wt/wt ratio; polymer:mRNA) formed in RNAse/DNAase free water (Corning, Manassas, VA). HK polyplexes were prepared as described previously, followed by the addition of diluted Syber Gold. For detection, working dilutions of the polyplexes (1/5 of volume), water (3/5) and Sybr Gold dye (1/5, 0.2×) were incubated for 5 minutes, and fluorescence was measured by a fluorimeter (Ex=497 nm, Em=520 nm) (SynergyMx, BioTek, Winooski, VT). The control sample was prepared with the same amount of mRNA, water, and Sybr Gold dye. For the heparin displacement, instead of water, heparin salt (Sigma-Aldrich, St. Louis, MO) solutions at different concentrations (0.5, 1, 1.5, 2, 3 μg/μl) were used, and the HK polyplexes were incubated at 37° C. for 30 min before addition of Sybr Gold.
Displacement of mRNA from HK polyplexes with heparin was also done with gel electrophoresis. After HK polyplexes were formed, different concentrations of heparin (0.5, 1.0, 1.5, 2.0, 3.0 μg/μl; volume 20 μl) were incubated with these at 37° C. for 30 min. The polyplexes were then loaded on the agarose gel (1%; 10× BlueJuice Gel loading buffer), and electrophoresis was carried out and stained with SG as described above. […]

[3] = Particle size, polydispersity index (PDI) and zeta potential of polyplexes (Zetasizer); type: physicochemical
Protocol: Particle size, polydispersity index (PDI), and zeta potential. The size, PDI, and zeta potential were determined with the Zetasizer (Malvern, Westborough, Mass.) and analyzed with software provided by the instrument manufacturer (Zetasizer software, version 6.2). Using dynamic light scattering at a 90° angle, the size of the particles were reported as the Z-average diameter from the intensity-weighted size distribution. Prior to the measurements, the samples were equilibrated to 25° C. for 2 min. Each measurement had at least ten sub-runs under the automatic mode of the software. The particle size, PDI, and zeta potential data point represent the mean±SD of three measurements. After mixing HK peptides (4 μg) and mRNA (1 μg) in 100 μl of defined media (Opti-MEM, water, or DMEM/8% FBS) for 30 min, 100 μl of additional defined media was added to the polyplex solution (total volume 200 μl) to measure the size and PDI. To determine the zeta potential, 800 μl more of the media was added (total volume 1000 μl), mixed gently, and then added to the disposable zeta cell.
Because different stabilities were observed between the H3K4b and H3K(+H)4b polyplexes, whether the sizes of these polyplexes varied based on the media in which they were prepared was investigated. […] H3K(+H)4b and H3K4b peptides (4 μg) in complex with mRNA (1 μg) were mixed with either Opti-MEM, water, or DMEM/8% FBS […]. After 1 h, the size, PDI, and zeta potential were measured.

[4] = polyplex HK 4 μg:mRNA 1 μg in DMEM/8% FBS
[5] = polyplex HK 4 μg:mRNA 1 μg in Opti-MEM
[6] = polyplex HK 4 μg:mRNA 1 μg in Water

## I: KHHHKHHHKHHHHKHHHKKKK-NH2 / II: KHHHKHHHKHHHHKHHHK / III: KHHHKHHHKHHHHKHHHK / IV: KHHHKHHHKHHHHKHHHK (amide I:19-IV:C, I:20-III:C, I:21-II:C) [H3K(+H)4b]
MDA-MB-231 cells
  mRNA transfection compared with DOTAP liposomes (in words): significantly better carriers of mRNA than the DOTAP liposomes
mRNA [1]
  retardation of mRNA at low ratios compared with H3K4b (in words): markedly less retarded
mRNA [2]
  binding/release of mRNA and polyplex stability on exposure to heparin (in words): binds more tightly to the mRNA
[3]; [4]
  PDI: 0.307
  Size: 289 ± 38.2 nm
  Zeta Potential: −12.7 ± 1.04 mV
[3]; [5]
  PDI: 0.362
  Size: 1004 ± 61.1 nm
  Zeta Potential: 2.92 ± 1.83 mV
[3]; [6]
  PDI: 0.212
  Size: 234.9 ± 2.7 nm
  Zeta Potential: 20.77 ± 1.12 mV
